Converted amounts (≈) assume the structure as drawn. “And” between values parts separate entries of the source, which are not always exact repeats. Equal values may be shown once. Blank lines part the entries; values can stand above or below the compound they belong to.
How the values were obtained:
[1] = tested on: Escherichia coli VKPM (B-7935); experiment: Antimicrobial assay, growth inhibition (optical density); type: cell-based; settings: E. coli, 18 h
Procedure, shortened: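 Compound tested from 100 µM downward; 1% DMSO in PBS as negative control. Planktonic growth read as OD at 620 nm after 18 h; 18 h biofilm formation quantified with MTT at 570 nm. Values as percent of control, reported as minimal concentration giving 50% reduction (MIC50).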

[2] = tested on: HepG2 cells; set-up: method as in PMID 29642369; settings: HepG2, at 100 µM; cited from earlier work
[3] = tested on: HCT116 cells; set-up: method as in PMID 29642369; settings: HCT116, at 100 µM; cited from earlier work
[4] = tested on: A549 cells; set-up: method as in PMID 29642369; settings: A549, at 100 µM; cited from earlier work
[5] = tested on: A375 cells; set-up: method as in PMID 29642369; settings: A375, at 100 µM; cited from earlier work
[6] = tested on: MCF-7 cells; experiment: Cell cycle investigation (propidium iodide, flow cytometry); type: cell-based, human
Experimental: After incubation, the cells were trypsinized, harvested, washed with PBS, and fixed with ice-cold 70% ethanol in a dropwise manner prior to storage at −20 °C overnight. The cells were then washed with PBS, incubated with 200 μg/mL RNAse (PanReac, AppliChem, Darmstadt, Germany) and 20 μg/mL of propidium iodide (Sigma-Aldrich, St. Louis, MO, USA) for 30 min at 37 °C, and DNA content was analyzed using a NovoCyte flow cytometer (Agilent, Austin, TX, USA). The proportion of cells in each cell cycle phase was expressed as a percentage.

[7] = tested on: MCF-7 spheroids; experiment: Three-dimensional culture of MCF-7 cells, spheroid area; type: cell-based, human
Experimental: The anticancer effect of petromurin C (8) was investigated using a 3D culture of MCF-7 cells (Figure 12). MCF-7 spheroids were formed in agarose microwells using MSLA-printed stamps. Compound 8 (10 µM and 20 µM) was added 24 h after the cells were seeded.
MCF-7 cell spheroids were formed in agarose microwells as described previously. Briefly, agarose (2.8%) heated to 60 °C was added to each well of a 96-well plate, and MSLA-printed stamps with microcylinders were inserted and then removed after agarose solidification. Each well contained 34 microwells with a diameter of 300 μm. MCF-7 cells at a concentration of 2 × 10^4 cells/well were added to each well and gently centrifuged to precipitate the cells that had gathered in the microwells. Petromurin C (8) was added after 24 h, and observations were performed daily using an MIB-2-FL fluorescence microscope (Lomo Microsystems, St. Petersburg, Russia) The spheroid area was calculated using CellProfiler software v. 4.2.8 [51, 52]. In total, at least 20 of the same spheroids in each variant were analyzed daily and data were calculated as mean ± SEM.

- Growth inhibition, MIC50 [1]: 11.42 ± 1.02 µM
- MIC50 ([1]; Escherichia coli): 7 to 11 µM (≈ 3.06 to 4.8 µg/mL)
Compound: COC1=C(c2c[nH]c3ccccc23)C(=O)C(CC=C(C)C)=C(c2c[nH]c3ccccc23)C1=O [Compound 6, kumbicin D]
- effect on cells [2]: weak effects
- effect on cells [3]: weak effects
- effect on cells [4]: weak effects
- effect on cells [5]: weak effects

Compound: COc1c(OC)c(-c2c[nH]c3ccc(O)cc23)c(OC)c(OC)c1-c1c[nH]c2ccccc12 [Compound 8, petromurin C]
- Cell Disturbance, G1 Phase ([6]; 1 h, 5 µM): 22.69 ± 0.42%
- Cell Disturbance, G2/M Phase ([6]; 1 h, 5 µM): 29.91 ± 1.95%
- Cell Disturbance, S Phase ([6]; 1 h, 5 µM): 45.52 ± 1.05%
- Cell Disturbance, G1 Phase ([6]; 1 h, 10 µM): 21.37 ± 2.18%
- Cell Disturbance, G2/M Phase ([6]; 1 h, 10 µM): 25.9% and 25.96 ± 0.62 %
- Cell Disturbance, S Phase ([6]; 1 h, 10 µM): 53.1% and 53.15 ± 1.53 %
- Cell Disturbance, G1 Phase ([6]; 3 h, 5 µM): 26.2% and 26.20 ± 1.17 %
- Cell Disturbance, G2/M Phase ([6]; 3 h, 5 µM): 17.2% and 17.20 ± 1.23 %
- Cell Disturbance, S Phase ([6]; 3 h, 5 µM): 56.6% and 56.60 ± 1.25 %
- Cell Disturbance, G1 Phase ([6]; 3 h, 10 µM): 33.82 ± 0.98%
- Cell Disturbance, G2/M Phase ([6]; 3 h, 10 µM): 14.9% and 14.95 ± 1.08 %
- Cell Disturbance, S Phase ([6]; 3 h, 10 µM): 51.8% and 51.79 ± 0.86 %
- decrease of spheroid area ([7]; 10 µM, after 24 h): 19.1%
- decrease of spheroid area ([7]; 10 µM, after 72 h): 28.9%
- decrease of spheroid area ([7]; 20 µM, after 24 h): 29.8%
- decrease of spheroid area ([7]; 20 µM, after 72 h): 32.6%
- decrease of the area of MCF-7 3D spheroids ([7]; abstract, concentration and time not stated): approximately 30%

Reference: article PMC12471299, “Secondary Metabolites of the Marine Sponge-Derived Fungus Aspergillus subramanianii 1901NT-1.40.2 and Their Antimicrobial and Anticancer Activities” (Marine Drugs, 2025)
